# Experiments:
# Format in all cases: physicochemical
# [1] = Solvent comparison: visual observation of naringenin dissolution, reassessed after three months; parameters: key: X: Dissolved; ◯: Partially dissolved, with sediments observed; #: Not dissolved; *: reprecipitated
# Procedure: Several solvents and solvent blends were prepared after which a measured amount of naringenin was added and mechanically agitated. Each mixture was then visually observed for dissolution. All samples were stored at room temperature protected from direct light and were reassessed for stability after a period of three months.
# [2] = Solubility at 25° C. from transparency during a heating ramp (Crystalline PV), exponential fit
# Procedure: Naringenin was mixed with different solvents and mixtures of solvent and transferred to an 8-mL vial equipped with an overhead stirrer. The sample was placed in a Crystalline PV instrument (Technobis, The Netherlands). A heating step was carried with a heating ramp of +0.1° C./min under mechanical stirring, and the samples were monitored by following transparency via a LED light beam that passes through the vial. Full (100%) transparency is attained when Naringenin is completely dissolved in the solvent. On the other hand, when the measured values of transparency are below 100% the dissolution process is still incomplete. Once the signal has attained 100% transparency, the dissolution process was complete and the respective temperature was taken as the solubilization temperature.
# For each solvent or mixture of solvent, the measured solubility as a function of temperature has been fitted to an exponential function. The solubility at 25° C. was obtained by extrapolation or interpolation of this exponential function.
# The same method as described in Example 3 was used to determine the solubility of Phloretin at 25° C.
# [3] = Stability of naringenin solutions stored three months at room temperature; parameters: key: X: dissolved; *: reprecipitated
# Excerpt: (§1) Naringenin was mixed with different solvents and heated until the product has completely dissolved. Subsequently, the samples were left to cool down to room temperature and stored over a period of three months.
# [4] = as above; parameters: key: X: Dissolved; ◯: Partially dissolved, with sediments observed; #: Not dissolved; *: reprecipitated; conditions: n-Propyl alcohol
# Excerpt: as §1
# [5] = (D)-Carvone, naringenin 15% (w/w)
# [6] = (L)-Carvone + isopropyl alcohol (50:50), naringenin 10% (w/w)
# [7] = (L)-Carvone, naringenin 10% (w/w)
# [8] = Carvone + isopropyl alcohol + benzyl alcohol (20:40:40), naringenin 10% (w/w)
# [9] = Ethanol + benzyl alcohol (50:50), naringenin 10% (w/w)
# [10] = Ethyl lactate + Glycerol 20%, naringenin 10% (w/w)
# [11] = Ethyl lactate, naringenin 10% (w/w)
# [12] = Isopropyl alcohol + benzyl alcohol (50:50), naringenin 10% (w/w)
# [13] = Isopropyl alcohol, naringenin 10% (w/w)
# [14] = Lactic acid, naringenin 5% (w/w)
# [15] = Mint Spicata (60% Carvone), naringenin 6% (w/w)
# [16] = Mint Spicata China (80% Carvone) + isopropyl alcohol (60:40), naringenin 15% (w/w)
# [17] = Mint Spicata China (80% Carvone), naringenin 10% (w/w)
# [18] = Propanol NAT, naringenin 6% (w/w)
# [19] = Propylene glycol, naringenin 10% (w/w)
# [20] = (L)-Carvone 50% + Isopropyl alcohol 50%
# [21] = n-Propyl alcohol, 4% of Naringenin
# [22] = n-Propyl alcohol, 5% of Naringenin
# [23] = n-Propyl alcohol, 6% of Naringenin
structure (smiles),measurement,setting,value
"O=C1C[C@@H](c2ccc(O)cc2)Oc2cc(O)cc(O)c21 [Naringenin, naringenin]",Observation,[1]; [5],X
same,Observation (after 3 months at RT),[1]; [5],X
same,Observation,[1]; [6],X
same,Observation (after 3 months at RT),[1]; [6],X
same,Observation,[1]; [7],X
same,Observation (after 3 months at RT),[1]; [7],X
same,Observation,[1]; [8],X
same,Observation (after 3 months at RT),[1]; [8],X
same,Observation,[1]; [9],X
same,Observation (after 3 months at RT),[1]; [9],*
same,Observation,[1]; [10],◯
same,Observation (after 3 months at RT),[1]; [10],◯
same,Observation,[1]; [11],#
same,Observation (after 3 months at RT),[1]; [11],#
same,Observation,"[1]; Glycerol, naringenin 5% (w/w)",#
same,Observation (after 3 months at RT),"[1]; Glycerol, naringenin 5% (w/w)",#
same,Observation,[1]; [12],X
same,Observation (after 3 months at RT),[1]; [12],*
same,Observation,[1]; [13],#
same,Observation (after 3 months at RT),[1]; [13],#
same,Observation,[1]; [14],#
same,Observation (after 3 months at RT),[1]; [14],#
same,Observation,[1]; [15],X
same,Observation (after 3 months at RT),[1]; [15],X
same,Observation,[1]; [16],X
same,Observation (after 3 months at RT),[1]; [16],X
same,Observation,[1]; [17],X
same,Observation (after 3 months at RT),[1]; [17],X
same,Observation,[1]; [18],◯
same,Observation (after 3 months at RT),[1]; [18],◯
same,Observation,[1]; [19],#
same,Observation (after 3 months at RT),[1]; [19],#
same,Solubility of Naringenin at 25° C. (%),[2]; (D)-Carvone 100%,8.5%
same,Solubility of Naringenin at 25° C. (%),[2]; (L)-Carvone 30% + n-Propyl alcohol 70%,11.7%
same,Solubility of Naringenin at 25° C. (%),[2]; (L)-Carvone 50% + Ethanol 50%,18.7%
same,Solubility of Naringenin at 25° C. (%),[2]; [20],16.6%
same,Solubility of Naringenin at 25° C. (%),[2]; (L)-Carvone 50% + Propylene glycol 50%,13.0%
same,Solubility of Naringenin at 25° C. (%),[2]; (L)-Carvone 50% + n-Propyl alcohol 50%,14.9%
same,Solubility of Naringenin at 25° C. (%),[2]; (L)-Carvone 70% + n-Propyl alcohol 30%,15.7%
same,Solubility of Naringenin at 25° C. (%),[2]; (L)-Carvone 90% + n-Propyl alcohol 10%,13.0%
same,Solubility of Naringenin at 25° C. (%),[2]; (L)-Carvone 100%,8.5%
same,Solubility of Naringenin at 25° C. (%),[2]; Benzyl alcohol 100%,3.9%
same,Solubility of Naringenin at 25° C. (%),[2]; Ethyl lactate 100%,5.3%
same,Solubility of Naringenin at 25° C. (%),[2]; Eucalyptol 100%,1.2%
same,Solubility of Naringenin at 25° C. (%),[2]; Glycerol 100%,0.1%
same,Solubility of Naringenin at 25° C. (%),[2]; Isopropyl alcohol 50% + Benzyl alcohol 50%,6.9%
same,Solubility of Naringenin at 25° C. (%),[2]; Isopropyl alcohol 100%,5.2%
same,Solubility of Naringenin at 25° C. (%),[2]; Limonene 100%,<0.1%
same,Solubility of Naringenin at 25° C. (%),[2]; Mint Spicata (80% carvone) 50% + Propylene glycol 50%,12.0%
same,Solubility of Naringenin at 25° C. (%),[2]; Mint Spicata (80% carvone) 60% + Isopropyl alcohol 40%,15.4%
same,Solubility of Naringenin at 25° C. (%),[2]; Mint Spicata (80% carvone) 100%,7.5%
same,Solubility of Naringenin at 25° C. (%),[2]; Neobee 100%,0.1%
same,Solubility of Naringenin at 25° C. (%),[2]; Propylene glycol 100%,3.6%
same,Solubility of Naringenin at 25° C. (%),[2]; Triethyl citrate 100%,1.7%
same,Solubility of Naringenin at 25° C. (%),[2]; n-Propyl alcohol 100%,4.2%
same,Solution state (after three months at RT),"[3]; (L)-Carvone, 4% of Naringenin",X
same,Solution state (right after heating),"[3]; (L)-Carvone, 4% of Naringenin",X
same,Solution state (after three months at RT),"[3]; (L)-Carvone, 5% of Naringenin",X
same,Solution state (right after heating),"[3]; (L)-Carvone, 5% of Naringenin",X
same,Solution state (after three months at RT),"[3]; (L)-Carvone, 6% of Naringenin",X
same,Solution state (right after heating),"[3]; (L)-Carvone, 6% of Naringenin",X
same,Solution state (after three months at RT),"[3]; (L)-Carvone, 8% of Naringenin",X
same,Solution state (right after heating),"[3]; (L)-Carvone, 8% of Naringenin",X
same,Solution state (after three months at RT),"[3]; (L)-Carvone, 10% of Naringenin",X
same,Solution state (right after heating),"[3]; (L)-Carvone, 10% of Naringenin",X
same,Solution state (after three months at RT),"[3]; (L)-Carvone, 12% of Naringenin",X
same,Solution state (right after heating),"[3]; (L)-Carvone, 12% of Naringenin",X
same,Solution state (after three months at RT),[3]; [21],X
same,Solution state (right after heating),[3]; [21],X
same,Solution state (after three months at RT),[3]; [22],X
same,Solution state (right after heating),[3]; [22],X
same,Solution state (after three months at RT),[3]; [23],X
same,Solution state (right after heating),[3]; [23],X
same,Solution state (right after heating),"[3]; n-Propyl alcohol, 8% of Naringenin",X
same,Solution state (right after heating),"[3]; n-Propyl alcohol, 10% of Naringenin",X
same,Solution state (right after heating),"[3]; n-Propyl alcohol, 12% of Naringenin",X
same,Solution state (after three months at RT),[4]; 8% of Naringenin,*
same,Solution state (after three months at RT),[4]; 10% of Naringenin,*
same,Solution state (after three months at RT),[4]; 12% of Naringenin,*
"O=C(CCc1ccc(O)cc1)c1c(O)cc(O)cc1O [Phloretin, phloretin]",Solubility of Phloretin at 25° C. (%),[2]; (L)-Carvone 50% + Ethanol 50%,21.9%
same,Solubility of Phloretin at 25° C. (%),[2]; [20],22.8%
same,Solubility of Phloretin at 25° C. (%),[2]; (L)-Carvone 100%,7.7%
same,Solubility of Phloretin at 25° C. (%),[2]; Ethanol 100%,15.9%
same,Solubility of Phloretin at 25° C. (%),[2]; Isopropyl alcohol 100%,12.7%
same,Solubility of Phloretin at 25° C. (%),[2]; Propylene glycol 100%,8.9%

# — patent publication US20260165350A1, “FLAVONOID COMPOSITIONS AND USES THEREOF” (FIRMENICH SA, priority 2022, published 2026)
